{"source": "patent US20240228504A1", "about": "“SUBSTITUTED TRICYCLIC AMIDES, ANALOGUES THEREOF, AND METHODS USING SAME” (Arbutus Biopharma Corporation, priority 2020, published 2024)", "data": [{"tested_on": "HBV rcDNA in HepDE19 cells", "assay": "HepDE19 assay with bDNA quantitation of HBV rcDNA", "format": "cell-based, hepatitis B virus", "details": "HepDE19 assay, inhibition of rcDNA formation, bDNA quantitation; read-out: DE-19bDNA EC50", "units": {"EC50": "nM"}, "values": [{"molecule": "CCc1cc(F)cc2[nH]c(C(=O)N(C)C3COCc4[nH]c(=O)c5cc(F)ccc5c43)cc12", "note": "(single isomer, unassigned) [Compound 394, 4-Ethyl-6-fluoro-N-(8-fluoro-6-oxo-1,4,5,6-tetrahydro-2H-pyrano[3,4-c]isoquinolin-1-yl)-N-methyl-1H-indole-2-carboxamide]", "EC50": 460}, {"molecule": "CN(C(=O)c1cc2c(Cl)cccc2[nH]1)C1CNCc2[nH]c(=O)c3cc(F)c(F)cc3c21", "note": "(single isomer, unassigned) [Compound 440, 4-Chloro-N-(8,9-difluoro-6-oxo-1,2,3,4,5,6-hexahydrobenzo[c][1,7]naphthyridin-1-yl)-N-methyl-1H-indole-2-carboxamide]", "EC50": 2200}, {"molecule": "CN(C(=O)c1cc2c(C(F)F)c(F)ccc2[nH]1)C1CNCc2[nH]c(=O)c3cc(F)ccc3c21", "note": "(single isomer, unassigned) [Compound 271, 4-(Difluoromethyl)-5-fluoro-N-(8-fluoro-6-oxo-1,2,3,4,5,6-hexahydrobenzo[c][1,7]naphthyridin-1-yl)-N-methyl-1H-indole-2-carboxamide]", "EC50": 6700}, {"molecule": "CN(C(=O)c1cc2ccc(F)cc2[nH]1)C1CNCc2[nH]c(=O)c3cc(F)c(F)cc3c21", "note": "(single isomer, unassigned) [Compound 108, N-(8,9-Difluoro-6-oxo-1,2,3,4,5,6-hexahydrobenzo[c][1,7]naphthyridin-1-yl)-6-fluoro-N-methyl-1H-indole-2-carboxamide]", "EC50": 1600}, {"molecule": "CN(C(=O)c1cc(F)c(Br)c(F)c1)C1CNCc2[nH]c(=O)c3cc(F)ccc3c21", "note": "(single isomer, unassigned) [Compound 171, 4-Bromo-3,5-difluoro-N-(8-fluoro-6-oxo-1,2,3,4,5,6-hexahydrobenzo[c][1,7]naphthyridin-1-yl)-N-methylbenzamide]", "EC50": 510}, {"molecule": "CN(C(=O)c1cc2c(F)cc(F)cc2[nH]1)C1COCc2[nH]c(=O)c3cc(F)ccc3c21", "note": "(single isomer, unassigned) [Compound 35, 4,6-Difluoro-N-(8-fluoro-6-oxo-1,4,5,6-tetrahydro-2H-pyrano[3,4-c]isoquinolin-1-yl)-N-methyl-1H-indole-2-carboxamide]", "EC50": 1400}, {"molecule": "CN(C(=O)c1cc(F)c(Cl)c(F)c1)C1CNCc2[nH]c(=O)c3cc(F)c(F)cc3c21", "note": "(single isomer, unassigned) [Compound 169, 4-Chloro-N-(8,9-difluoro-6-oxo-1,2,3,4,5,6-hexahydrobenzo[c][1,7]naphthyridin-1-yl)-3,5-difluoro-N-methylbenzamide]", "EC50": 40}, {"molecule": "CN(C(=O)c1ccc2scnc2c1)C1COCc2[nH]c(=O)c3cc(F)ccc3c21", "note": "(single isomer, unassigned) [Compound 445, N-(8-fluoro-6-oxo-1,4,5,6-tetrahydro-2H-pyrano[3,4-c]isoquinolin-1-yl)-N-methylbenzo[d]thiazole-5-carboxamide]", "EC50": 700}, {"molecule": "CCc1cc(F)cc2[nH]c(C(=O)N(C)C3CNCc4[nH]c(=O)c5cc(F)c(F)cc5c43)cc12", "note": "(single isomer, unassigned) [Compound 402, N-(8,9-Difluoro-6-oxo-1,2,3,4,5,6-hexahydrobenzo[c][1,7]naphthyridin-1-yl)-4-ethyl-6-fluoro-N-methyl-1H-indole-2-carboxamide]", "EC50": 20}, {"molecule": "Cc1cccc2[nH]c(C(=O)N(C)C3COCc4[nH]c(=O)c5cc(F)ccc5c43)cc12", "note": "(single isomer, unassigned) [Compound 423, N-(8-Fluoro-6-oxo-1,4,5,6-tetrahydro-2H-pyrano[3,4-c]isoquinolin-1-yl)-N,4-dimethyl-1H-indole-2-carboxamide]", "EC50": 10}, {"molecule": "CCc1cc(F)cc2[nH]c(C(=O)N(C)C3COCc4[nH]c(=O)c5cc(F)ccc5c43)cc12", "note": "(single isomer, unassigned) [Compound 393, 4-Ethyl-6-fluoro-N-(8-fluoro-6-oxo-1,4,5,6-tetrahydro-2H-pyrano[3,4-c]isoquinolin-1-yl)-N-methyl-1H-indole-2-carboxamide]", "EC50": 1200}, {"molecule": "CN(C(=O)C1Cc2c(F)cc(F)cc2N1)C1COCc2[nH]c(=O)c3cc(F)c(F)cc3c21", "note": "(centres unmarked) [Compound 16, N-(8,9-Difluoro-6-oxo-1,4,5,6-tetrahydro-2H-pyrano[3,4-c]isoquinolin-1-yl)-4,6-difluoro-N-methylindoline-2-carboxamide]", "EC50": 20}, {"molecule": "CN(C(=O)c1cc2cc(F)c(F)cc2[nH]1)C1CNCc2[nH]c(=O)c3cc(F)c(F)cc3c21", "note": "(single isomer, unassigned) [Compound 115, N-(8,9-Difluoro-6-oxo-1,2,3,4,5,6-hexahydrobenzo[c][1,7]naphthyridin-1-yl)-5,6-difluoro-N-methyl-1H-indole-2-carboxamide]", "EC50": 20}, {"molecule": "CN(C(=O)c1cc2cc(F)ccc2[nH]1)[C@@H]1CCC(O)c2[nH]c(=O)c3cc(F)c(F)cc3c21", "note": "(single isomer, unassigned) [Compound 502]", "EC50": 30}, {"molecule": "CN(C(=O)c1cc2sccc2[nH]1)C1COCc2[nH]c(=O)c3cc(F)ccc3c21", "note": "(single isomer, unassigned) [Compound 380, N-(8-Fluoro-6-oxo-1,4,5,6-tetrahydro-2H-pyrano[3,4-c]isoquinolin-1-yl)-N-methyl-4H-thieno[3,2-b]pyrrole-5-carboxamide]", "EC50": 880}, {"molecule": "CN(C(=O)c1cc(F)c(Br)c(F)c1)C1CNCc2[nH]c(=O)c3cc(F)c(F)cc3c21", "note": "(single isomer, unassigned) [Compound 165, 4-Bromo-N-(8,9-difluoro-6-oxo-1,2,3,4,5,6-hexahydrobenzo[c][1,7]naphthyridin-1-yl)-3,5-difluoro-N-methylbenzamide]", "EC50": 20}]}, {"tested_on": "HBV rcDNA in HepDE19 cells", "assay": "HepDE19 assay with bDNA quantitation of HBV rcDNA", "format": "cell-based, hepatitis B virus", "details": "Hepatitis B virus, HepDE19, HepDE19 assay, inhibition of rcDNA formation, bDNA quantitation; read-out: DE-19bDNA EC50", "units": {"EC50": "nM"}, "values": [{"molecule": "CN(C(=O)c1ccc(C(F)(F)F)c(F)c1)C1COCc2[nH]c(=O)c3cscc3c21", "note": "(racemic) [Compound 133, 3-Fluoro-N-methyl-N-(4-oxo-4,5,8,9-tetrahydro-6H-pyrano[3,4-b]thieno[3,4-d]pyridin-9-yl)-4-(trifluoromethyl)benzamide]", "EC50": 60}, {"molecule": "CN(C(=O)c1ccc2cccn2c1)[C@@H]1COCc2[nH]c(=O)c3cc(F)c(F)cc3c21", "note": "[Compound 227, (S)-N-(8,9-Difluoro-6-oxo-1,4,5,6-tetrahydro-2H-pyrano[3,4-c]isoquinolin-1-yl)-N-methylindolizine-6-carboxamide]", "EC50": 20}, {"molecule": "CN(C(=O)c1cnc(C(F)(F)F)c(Cl)c1)C1CNCc2[nH]c(=O)c3cc(F)c(F)cc3c21", "note": "(single isomer, unassigned) [Compound 419, 5-Chloro-N-(8,9-difluoro-6-oxo-1,2,3,4,5,6-hexahydrobenzo[c][1,7]naphthyridin-1-yl)-N-methyl-6-(trifluoromethyl)nicotinamide]", "EC50": 140}, {"molecule": "CN(C(=O)c1csc(Cl)c1)[C@@H]1COCc2[nH]c(=O)c3cc(F)c(F)cc3c21", "note": "[Compound 140, (S)-5-Chloro-N-(8,9-difluoro-6-oxo-1,4,5,6-tetrahydro-2H-pyrano[3,4-c]isoquinolin-1-yl)-N-methylthiophene-3-carboxamide]", "EC50": 100}, {"molecule": "O=C(N[C@@H]1COCc2[nH]c(=O)c3cc(F)c(F)cc3c21)c1cc2c(F)cc(F)cc2[nH]1", "note": "[Compound 157, (S)-N-(8,9-Difluoro-6-oxo-1,4,5,6-tetrahydro-2H-pyrano[3,4-c]isoquinolin-1-yl)-4,6-difluoro-1H-indole-2-carboxamide]", "EC50": 250}, {"molecule": "CN(C(=O)c1ccc(-c2ccc(F)cc2)cc1)[C@@H]1COCc2[nH]c(=O)c3cc(F)c(F)cc3c21", "note": "[Compound 250, (S)-N-(8,9-Difluoro-6-oxo-1,4,5,6-tetrahydro-2H-pyrano[3,4-c]isoquinolin-1-yl)-4′-fluoro-N-methyl-[1,1′-biphenyl]-4-carboxamide]", "EC50": 8100}, {"molecule": "CN(C(=O)c1ccc2ncsc2c1)[C@@H]1COCc2[nH]c(=O)c3cc(F)c(F)cc3c21", "note": "[Compound 428, (S)-N-(8,9-Difluoro-6-oxo-1,4,5,6-tetrahydro-2H-pyrano[3,4-c]isoquinolin-1-yl)-N-methylbenzo[d]thiazole-6-carboxamide]", "EC50": 340}, {"molecule": "CN(C(=O)c1cc(F)c(F)c(F)c1)[C@@H]1COCc2[nH]c(=O)c3cc(F)c(F)cc3c21", "note": "[Compound 76, (S)-N-(8,9-Difluoro-6-oxo-1,4,5,6-tetrahydro-2H-pyrano[3,4-c]isoquinolin-1-yl)-3,4,5-trifluoro-N-methylbenzamide]", "EC50": 90}, {"molecule": "CN(C(=O)c1cc2cc(OC(F)(F)F)ccc2[nH]1)[C@@H]1COCc2[nH]c(=O)c3cc(F)c(F)cc3c21", "note": "[Compound 327, (S)-N-(8,9-Difluoro-6-oxo-1,4,5,6-tetrahydro-2H-pyrano[3,4-c]isoquinolin-1-yl)-N-methyl-5-(trifluoromethoxy)-1H-indole-2-carboxamide]", "EC50": 1200}, {"molecule": "CN(Cc1ccc(Br)c(F)c1)[C@@H]1COCc2[nH]c(=O)c3cc(F)c(F)cc3c21", "note": "[Compound 486, (S)-1-((4-bromo-3-fluorobenzyl)(methyl)amino)-8,9-difluoro-1,5-dihydro-2H-pyrano[3,4-c]isoquinolin-6(4H)-one]", "EC50": 8280}, {"molecule": "CN(C(=O)c1cc2cnc(Cl)cc2[nH]1)[C@@H]1COCc2[nH]c(=O)c3cc(F)c(F)cc3c21", "note": "[Compound 309, (S)-6-chloro-N-(8,9-difluoro-6-oxo-1,4,5,6-tetrahydro-2H-pyrano[3,4-c]isoquinolin-1-yl)-N-methyl-1H-pyrrolo[3,2-c]pyridine-2-carboxamide]", "EC50": 50}, {"molecule": "CN(C(=O)c1cc2c(C(F)F)c(F)ccc2[nH]1)[C@@H]1COCc2[nH]c(=O)c3cc(F)c(F)cc3c21", "note": "[Compound 254, (S)-N-(8,9-Difluoro-6-oxo-1,4,5,6-tetrahydro-2H-pyrano[3,4-c]isoquinolin-1-yl)-4-(difluoromethyl)-5-fluoro-N-methyl-1H-indole-2-carboxamide]", "EC50": 10}, {"molecule": "CN(C(=O)c1cc(F)c(Br)cc1F)[C@@H]1COCc2[nH]c(=O)c3cc(F)c(F)cc3c21", "note": "[Compound 245, (S)-4-Bromo-N-(8,9-difluoro-6-oxo-1,4,5,6-tetrahydro-2H-pyrano[3,4-c]isoquinolin-1-yl)-2,5-difluoro-N-methylbenzamide]", "EC50": 170}]}]}
